# Measured values taken from ChEMBL document CHEMBL1131973, “Asymmetric synthesis of novel quaternary alpha-hydroxy-delta-lactam dipeptide surrogates” (Bioorg Med Chem Lett, 1999).
# Molecular target: Prothrombin (Homo sapiens, UniProt P00734)
smiles,measurement,value
N=C(N)N1CCC[C@H](NC(=O)CN2CCC[C@@](N)(Cc3ccccc3)C2=O)C1O (stereo partly drawn),Ki,1 nM
CCOC(=O)[C@]1(NS(=O)(=O)Cc2ccccc2)CCCN(CC(=O)N[C@H]2CCCN(C(=N)N)C2O)C1=O (stereo partly drawn),Ki,1 nM
N=C(N)N1CCC[C@H](NC(=O)CN2CCC[C@H](NS(=O)(=O)Cc3ccccc3)C2=O)C1O (stereo partly drawn),Ki,1 nM
